Measurements taken from patent publication US11566007B2, “Ras inhibitors” (Revolution Medicines, Inc., priority 2019, dated 2023).
Values joined by “and” are separate entries in the source; they are usually repeats but may differ in a detail not shown here. Identical values can stand only once. Like-named read-outs stand apart in the source and are kept apart here.

Assays:
KRAS WT = KRAS WT (Homo sapiens (Human), UniProt P01116+P62937); test: Ras-Raf (BRAF RBD) disruption / FRET / MOA assay, KRAS WT; format: biochemical; conditions: read-out: IC50* KRAS WT FRET data
Sequence of KRAS WT (P01116-2 other isoform, or with tags, fused parts or gaps): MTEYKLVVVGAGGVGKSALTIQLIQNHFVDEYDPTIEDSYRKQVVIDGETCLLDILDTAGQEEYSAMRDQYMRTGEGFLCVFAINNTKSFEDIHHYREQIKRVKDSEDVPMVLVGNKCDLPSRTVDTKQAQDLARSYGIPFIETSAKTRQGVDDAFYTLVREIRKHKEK
Sequence of KRAS WT (P62937 whole entry, canonical isoform): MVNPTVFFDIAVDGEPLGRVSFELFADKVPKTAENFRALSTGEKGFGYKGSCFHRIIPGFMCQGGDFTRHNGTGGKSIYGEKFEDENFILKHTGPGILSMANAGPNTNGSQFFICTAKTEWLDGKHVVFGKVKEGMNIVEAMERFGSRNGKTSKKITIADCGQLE
Procedure: (§1) The purpose of this biochemical assay is to measure the ability of test compounds to facilitate ternary complex formation between a nucleotide-loaded Ras isoform and cyclophilin A; the resulting ternary complex disrupts binding to a BRAF^RBD construct, inhibiting Ras signaling through a RAF effector.
(§2) Compound is present in plate wells as a 10-point 3-fold dilution series starting at a final concentration of 30 μM. After incubation at 25° C. for 3 hours, a mixture of Anti-His Eu-W1024 and anti-GST allophycocyanin is then added to assay sample wells at final concentrations of 10 nM and 50 nM, respectively, and the reaction incubated for an additional 1.5 hours. […] Compounds that facilitate disruption of a Ras:RAF complex are identified as those eliciting a decrease in the TR-FRET ratio relative to DMSO control wells.
(§3) This protocol may also be executed substituting other Ras proteins or nucleotides.
(§4) The purpose of this biochemical assay was to measure the ability of test compounds to facilitate ternary complex formation between a nucleotide-loaded K-Ras isoform and Cyclophilin A; the resulting ternary complex disrupts binding to a BRAF^RBD construct, inhibiting K-Ras signaling through a RAF effector. Data is reported as IC50 values.
as §2, with “Compound was” for “Compound is”, “allophycocyanin was” for “allophycocyanin is”, “a K-Ras:RAF” for “a Ras:RAF”, “complex were” for “complex are”

K-Ras G13C = K-Ras G13C (Homo sapiens (Human), UniProt P01116+P62937, G13C); test: Ras-Raf (BRAF RBD) disruption / FRET / MOA assay, KRAS G13C; format: biochemical; conditions: KRAS G13C; Ras-Raf disruption/FRET/MOA assay; read-out: IC50* KRAS G13C FRET data
Sequence of K-Ras G13C (P01116-2 other isoform, or with tags, fused parts or gaps G13C): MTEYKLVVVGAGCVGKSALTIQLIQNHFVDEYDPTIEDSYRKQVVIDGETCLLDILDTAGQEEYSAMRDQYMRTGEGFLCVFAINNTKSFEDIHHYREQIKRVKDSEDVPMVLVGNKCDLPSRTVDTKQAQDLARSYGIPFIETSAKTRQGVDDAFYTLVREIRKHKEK
Sequence of K-Ras G13C (P62937 whole entry): as the sequence (P62937 whole entry, canonical isoform) above
Procedure: as §1, §2, §3, §4
as §2, with “Compound was” for “Compound is”, “allophycocyanin was” for “allophycocyanin is”, “a K-Ras:RAF” for “a Ras:RAF”, “complex were” for “complex are”

KRAS G12D = KRAS G12D (Homo sapiens (Human), UniProt P01116+P62937, G12D); test: Ras-Raf (BRAF RBD) disruption / FRET / MOA assay, KRAS G12D; format: biochemical; conditions: Ras-Raf disruption/FRET/MOA assay; class symbols; read-out: KRAS G12D FRET data IC50
Sequence of KRAS G12D (P01116-2 other isoform, or with tags, fused parts or gaps G12D): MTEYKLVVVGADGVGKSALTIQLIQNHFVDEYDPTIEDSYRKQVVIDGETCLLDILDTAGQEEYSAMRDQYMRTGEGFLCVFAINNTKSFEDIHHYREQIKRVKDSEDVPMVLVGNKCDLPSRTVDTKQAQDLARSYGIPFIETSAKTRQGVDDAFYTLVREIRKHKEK
Sequence of KRAS G12D (P62937 whole entry): as the sequence (P62937 whole entry, canonical isoform) above
Method in brief: (§5)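 TR-FRET read-out: a drop in ratio relative to DMSO wells marks disruption of the Ras:RAF complex, reported as IC50. Compounds (3-fold series, 10 points, top 30 μM final) incubated 3 h at 25° C before Eu-anti-His 10 nM and APC-anti-GST 50 nM, 1.5 h more.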

[1] = test system: NCI-H358 cells (K-Ras G12C); test: Potency assay: pERK in NCI-H358 cells; format: cell-based, human; conditions: H358 KRAS G12C, read-out: pERK EC50
Method in brief: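 pERK decrease read by AlphaLISA SureFire p-ERK1/2 or In-Cell Western after 4 h compound exposure at 37 °C, 5% CO2.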

K-Ras G12C = K-Ras G12C (Homo sapiens (Human), UniProt P01116+P62937, G12C); test: Ras-Raf (BRAF RBD) disruption / FRET / MOA assay, KRAS G12C; format: biochemical; conditions: KRAS G12C; Ras-Raf disruption/FRET/MOA assay; read-out: IC50* KRAS G12C FRET data
Sequence of K-Ras G12C (P01116-2 other isoform, or with tags, fused parts or gaps G12C): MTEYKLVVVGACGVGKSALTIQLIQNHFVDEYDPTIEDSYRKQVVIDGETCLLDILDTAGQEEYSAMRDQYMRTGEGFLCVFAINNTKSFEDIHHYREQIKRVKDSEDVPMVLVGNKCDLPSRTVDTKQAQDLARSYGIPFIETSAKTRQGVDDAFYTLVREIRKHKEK
Sequence of K-Ras G12C (P62937 whole entry): as the sequence (P62937 whole entry, canonical isoform) above
Procedure: as §1, §2, §3, §4
as §2, with “Compound was” for “Compound is”, “allophycocyanin was” for “allophycocyanin is”, “a K-Ras:RAF” for “a Ras:RAF”, “complex were” for “complex are”

KRAS G12V = KRAS G12V (Homo sapiens (Human), UniProt P01116+P62937, G12V); test: Ras-Raf (BRAF RBD) disruption / FRET / MOA assay, KRAS G12V; format: biochemical; conditions: read-out: IC50* KRAS G12V FRET data
Sequence of KRAS G12V (P01116-2 other isoform, or with tags, fused parts or gaps G12V): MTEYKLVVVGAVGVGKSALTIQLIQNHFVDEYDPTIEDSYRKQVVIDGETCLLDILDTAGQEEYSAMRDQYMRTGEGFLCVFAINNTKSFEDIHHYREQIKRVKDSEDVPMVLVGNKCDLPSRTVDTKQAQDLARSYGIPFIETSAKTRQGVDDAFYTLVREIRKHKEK
Sequence of KRAS G12V (P62937 whole entry): as the sequence (P62937 whole entry, canonical isoform) above
Procedure: as §1, §2, §3, §4
as §2, with “Compound was” for “Compound is”, “allophycocyanin was” for “allophycocyanin is”, “a K-Ras:RAF” for “a Ras:RAF”, “complex were” for “complex are”

NCI-H358 (K-Ras G12C) = test: CellTiter-Glo cell viability assay, NCI-H358; format: cell-based, human; conditions: NCI-H358, 5-day treatment, class symbols, read-out: Additional H358 Cell Viability assay data (K-Ras G12C, IC50)
Method in brief: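 Compounds dispensed directly onto seeded K-Ras mutant cells; plates read on day 5 after ~30 min equilibration to room temperature, by CellTiter-Glo luminescence. Signal normalized as (sample/mean DMSO)×100, then fitted to a four-parameter logistic curve.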

NRAS G12C = NRAS G12C (Homo sapiens (Human), UniProt P01111+P62937, G12C); test: Ras-Raf (BRAF RBD) disruption / FRET / MOA assay, NRAS G12C; format: biochemical; conditions: read-out: IC50* NRAS G12C FRET data
Sequence of NRAS G12C (P01111 whole entry G12C): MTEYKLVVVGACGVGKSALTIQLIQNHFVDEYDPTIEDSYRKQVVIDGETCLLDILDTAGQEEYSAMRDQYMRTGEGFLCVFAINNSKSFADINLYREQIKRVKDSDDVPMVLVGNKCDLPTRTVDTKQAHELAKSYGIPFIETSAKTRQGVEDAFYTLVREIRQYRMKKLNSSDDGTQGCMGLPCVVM
Sequence of NRAS G12C (P62937 whole entry): as the sequence (P62937 whole entry, canonical isoform) above
Procedure: as §1, §2
This protocol may also be executed substituting other Ras proteins or nucleotides. […]

KRAS G12S = KRAS G12S (Homo sapiens (Human), UniProt P01116+P62937, G12S); test: Ras-Raf (BRAF RBD) disruption / FRET / MOA assay, KRAS G12S; format: biochemical; conditions: Ras-Raf disruption/FRET/MOA assay; class symbols; read-out: KRAS G12S FRET data IC50
Sequence of KRAS G12S (P01116-2 other isoform, or with tags, fused parts or gaps G12S): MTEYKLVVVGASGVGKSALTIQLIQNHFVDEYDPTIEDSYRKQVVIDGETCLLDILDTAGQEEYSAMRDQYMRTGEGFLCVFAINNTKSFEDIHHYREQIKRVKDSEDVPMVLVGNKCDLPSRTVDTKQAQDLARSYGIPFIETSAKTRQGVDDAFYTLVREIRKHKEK
Sequence of KRAS G12S (P62937 whole entry): as the sequence (P62937 whole entry, canonical isoform) above
Method in brief: as §5

KRAS G13D = KRAS G13D (Homo sapiens (Human), UniProt P01116+P62937, G13D); test: Ras-Raf (BRAF RBD) disruption / FRET / MOA assay, KRAS G13D; format: biochemical; conditions: read-out: IC50* KRAS G13D FRET data
Sequence of KRAS G13D (P01116-2 other isoform, or with tags, fused parts or gaps G13D): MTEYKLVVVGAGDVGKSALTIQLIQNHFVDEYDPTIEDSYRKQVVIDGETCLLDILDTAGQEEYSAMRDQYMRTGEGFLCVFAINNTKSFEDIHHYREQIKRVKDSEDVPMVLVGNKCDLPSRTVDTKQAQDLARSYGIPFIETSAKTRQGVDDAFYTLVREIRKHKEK
Sequence of KRAS G13D (P62937 whole entry): as the sequence (P62937 whole entry, canonical isoform) above
Procedure: as §1, §2, §3, §4
as §2, with “Compound was” for “Compound is”, “allophycocyanin was” for “allophycocyanin is”, “a K-Ras:RAF” for “a Ras:RAF”, “complex were” for “complex are”

SMILES	IC50 (KRAS WT)	IC50 (K-Ras G13C)	IC50 (KRAS G12D) [µM]	EC50 ([1]; Homo sapiens, NCI-H358) [µM]	IC50 (K-Ras G12C)	IC50 (KRAS G12V)	IC50 (NCI-H358 (K-Ras G12C)) [µM]	IC50 (NRAS G12C)	IC50 (KRAS G12S) [µM]	EC50 [1] [µM]	IC50 (KRAS G13D) [µM]	IC50 (NCI-H358 (K-Ras G12C); Homo sapiens, NCI-H358, 120 h) [µM]
C=CC(=O)Nc1cnc(C(=O)N(C)[C@H](C(=O)N[C@H]2Cc3cc(O)cc(c3)-c3ccc4c(c3)c(c(-c3cccnc3[C@H](C)OC)n4CC)CC(C)(C)COC(=O)[C@@H]3CCCN(N3)C2=O)C(C)C)n1C [Example A334]	0.1 to 1 µM and 0.01 to 0.1 µM	0.01 to 0.1 µM and < 0.01 µM	0.1 to 1	< 5	< 0.01 µM and 0.01 to 0.1 µM	0.1 to 1 µM and 0.01 to 0.1 µM	< 0.01	< 0.01 µM and 0.01 to 0.1 µM	0.01 to 0.1			
CCn1c(-c2cccnc2[C@H](C)OC)c2c3cc(ccc31)-c1cc(O)cc(c1)C[C@H](NC(=O)[C@H](C(C)C)N(C)C(=O)[C@H]1CCN(C(=O)C#CC3(N(C)C)COC3)C1)C(=O)N1CCC[C@H](N1)C(=O)OCC(C)(C)C2 [Example A337]			1 to 10		< 0.01 µM		< 0.01	< 0.01 µM	0.1 to 1	< 5		
C=CC(=O)N1CC[C@H](C(=O)N(C)[C@H](C(=O)N[C@H]2Cc3cccc(c3)-c3ccc4c(c3)c(c(-c3cc(C5=CCN(C)CC5)cnc3[C@H](C)OC)n4CC)CC(C)(C)COC(=O)[C@@H]3CCCN(N3)C2=O)C(C)C)C1 (atropisomer, axis not shown) [Example A514]	> 10 µM	1 to 10 µM	> 10		1 to 10 µM	> 10 µM		1 to 10 µM	> 10		> 10	
CCn1c(-c2cccnc2COC)c2c3cc(ccc31)-c1cc(O)cc(c1)C[C@H](NC(=O)[C@H](C(C)C)N(C)C(=O)[C@H]1CCN(C(=O)C#CCN3CCOCC3)C1)C(=O)N1CCC[C@H](N1)C(=O)OCC(C)(C)C2 [Example A095]	1 to 10 µM	0.1 to 1 µM	> 10			0.1 to 1 µM			0.1 to 1		1 to 10	
CCn1c(-c2cccnc2[C@H](C)OC)c2c3cc(ccc31)-c1cccc(c1)C[C@H](NC(=O)[C@H](C(C)C)N(C)C(=O)[C@H]1CCN(C(=O)/C=C/CN3CC(OC)C3)C1)C(=O)N1CCC[C@H](N1)C(=O)OCC(C)(C)C2 (atropisomer, axis not shown) [Example A204]	1 to 10 µM	1 to 10 µM	> 10	< 5	0.01 to 0.1 µM	1 to 10 µM		0.01 to 0.1 µM	1 to 10			
CCn1c(-c2cnccc2COC)c2c3cc(ccc31)-c1cc(O)cc(c1)C[C@H](NC(=O)[C@H](C(C)C)N(C)C(=O)[C@H]1CCN(C(=O)C#CCN(C)C)C1)C(=O)N1CCC[C@H](N1)C(=O)OCC(C)(C)C2 (atropisomer, axis not shown) [Example A107]	0.1 to 1 µM		0.1 to 1		< 0.01 µM	0.1 to 1 µM			0.1 to 1	< 5	0.1 to 1	< 0.01
C=CC(=O)Nc1ccc(C(=O)N(C)[C@H](C(=O)N[C@H]2Cc3cc(O)cc(c3)-c3ccc4c(c3)c(c(-c3cccnc3[C@H](C)OC)n4CC)CC(C)(C)COC(=O)[C@@H]3CCCN(N3)C2=O)C(C)C)cn1 (atropisomer, axis not shown) [Example A336]	0.1 to 1 µM	< 0.01 µM	1 to 10			0.1 to 1 µM		< 0.01 µM	0.1 to 1	< 5	0.1 to 1	
C=CC(=O)N1CC[C@H](C(=O)N(C)[C@H](C(=O)N[C@H]2Cc3cccc(c3)-c3ccc4c(c3)c(c(-c3cnccc3COC)n4CC)CC(C)(C)COC(=O)[C@@H]3CCCN(N3)C2=O)C(C)C)C1 (atropisomer, axis not shown) [Example A119]		1 to 10 µM	> 10	< 5	0.1 to 1 µM	> 10 µM		0.1 to 1 µM	1 to 10		> 10	0.01 to 0.1
C=CC(=O)N1CC[C@H](C(=O)N(C)[C@H](C(=O)NC2C[C@H]3CN(CCCO3)c3ccc4c(c3)c(c(-c3cccnc3[C@H](C)OC)n4CC)CC(C)(C)COC(=O)[C@@H]3CCCN(N3)C2=O)C(C)C)C1 (single isomer, unassigned) [Example A405]	> 10 µM	> 10 µM	> 10			> 10 µM		> 10 µM	> 10		> 10	> 1
CCn1c(-c2cccnc2[C@H](C)OC)c2c3cc(ccc31)-c1cc(O)cc(c1)C[C@H](NC(=O)[C@H](C(C)C)N(C)C(=O)[C@H]1CCN(C(=O)C#CC3(N(C)C)COC3)C1)C(=O)N1CCC[C@H](N1)C(=O)OCC(C)(C)C2 [Example A246]	0.1 to 1 µM	0.01 to 0.1 µM	1 to 10	< 5		0.1 to 1 µM			0.1 to 1		0.1 to 1	< 0.01
C=CC(=O)N1CCC(C(=O)N(C)[C@H](C(=O)N[C@H]2CCC(=O)N(C)Cc3ccc4c(c3)c(c(-c3cccnc3[C@H](C)OC)n4CC)CC(C)(C)COC(=O)[C@@H]3CCCN(N3)C2=O)C(C)C)C1 (atropisomer, axis not shown) [Example A500]	> 10 µM	> 10 µM	> 10			> 10 µM		> 10 µM	> 10			> 1
CCn1c(-c2cccnc2COC)c2c3cc(ccc31)-c1cc(O)cc(c1)C[C@H](NC(=O)[C@H](C(C)C)N(C)C(=O)[C@H]1CCN(C(=O)/C=C/CN(C)C)C1)C(=O)N1CCC[C@H](N1)C(=O)OCC(C)(C)C2 [Example A054]	0.1 to 1 µM	0.1 to 1 µM	0.1 to 1		0.01 to 0.1 µM	0.1 to 1 µM		0.01 to 0.1 µM	0.1 to 1		0.1 to 1	
C=CC(=O)N1CCN(C(=O)N(C)[C@H](C(=O)N[C@H]2Cc3nc(cs3)-c3ccc4c(c3)c(c(-c3cccnc3[C@H](C)OC)n4CC(F)(F)F)CC(C)(C)COC(=O)[C@@H]3CCCN(N3)C2=O)C(C)C)CC1 (atropisomer, axis not shown) [Example A465]	0.01 to 0.1 µM	0.01 to 0.1 µM	0.01 to 0.1		0.01 to 0.1 µM			0.01 to 0.1 µM	0.01 to 0.1	< 5	0.01 to 0.1	
CCn1c(-c2cccnc2COC)c2c3cc(ccc31)-c1cc(C)cc(c1)C[C@H](NC(=O)[C@H](C(C)C)N(C)C(=O)[C@H]1CCN(C(=O)C#CCN(C)C)C1)C(=O)N1CCC[C@H](N1)C(=O)OCC(C)(C)C2 [Example A157]		0.1 to 1 µM	1 to 10		< 0.01 µM			< 0.01 µM	> 10	< 5		
